Assay results taken from patent US6488909B1, “Chelating agents as well as their tricarbonyl complexes with technetium and rhenium” (Schering Aktiengesellschaft, priority 1998, dated 2002).

What was measured:
[1] = Incubation of the Tc-99m-tricarbonyl complex in serum; format: in vitro ADME; conditions: 26 hours of incubation in serum
Method: (§1) The complexes are stable, so that at room temperature, no exchange of chelating agents for histidine is carried out. The. chelates and tricarbonyl-Tc-99m and Re-tricarbonyl complexes that are described in this invention are thus clearly better suited for diagnostic and therapeutic purposes than the previously known systems. A special advantage of the compounds according to the invention consists in the fact that their syntheses can be directed without using sulfur protective groups. This makes their synthesis very simple, and in addition, such compounds that are described according to the invention in particular offer the advantage that after radiochemical labeling, no further foreign molecules are contained in the solutions that are to be administered intravenously for radiodiagnosis or radiotherapy. Such foreign molecules frequently disrupt the biodistribution of the radiopharmaceutical agent and can adversely affect the diagnostic information content of the SPECT imaging. In addition, the labelings on such ligands or their coupling products can be performed on substances that accumulate selectively on diseased tissues under very mild conditions. […]

[2] = Stability study: histidine challenge, radiochemical composition by HPLC on RP18 column; format: physicochemical; conditions: stirred 1 hour at 50° C.
Method: as §1

Substance | decomposition products after incubation in serum [1] | radiochemical composition (HPLC chromatogram) after histidine challenge ([2]; 10 mg of histidine) | radiochemical composition (HPLC chromatogram) after histidine challenge ([2]; 20 mg of histidine)
Tc-99m-Tricarbonyl complex of N-(hydroxycarboxy-methyl)-N-(N′-propyl-carbamido-methyl)-S-ethyl-2-mercaptoethylamine [Example 2b] | no decomposition products | unchanged | 
Tc-99m-Tricarbonyl Complex of {2-(1H-pyrazol1-yl)-ethylimino}-diacetic Acid-monopropylamide [Example 7b] |  |  | unchanged
